Source: PubChem BioAssay AID2060603 (Molecular Pharmacology Branch, DTP, NCI, 2025)

Test system: 422866-222-R5-J1-PDC spheroid viability
Assay: Anticancer human tumor 422866-222-R5-J1-PDC patient-derived pancreatic adenocarcinoma cell line growth inhibition [CLK]
Settings: spheroids with HUVEC and MSC; for IC50: curve of first compound; for viability, T/C: stronger effect = lower value
In short: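 Patient-derived tumor cells grown as complex spheroids with HUVEC endothelial cells and mesenchymal stem cells, treated with drug combinations. Concentrations descend in half-log steps from near clinical Cmax, or from 10 microM if Cmax unknown.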
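Further: spheroids exposed to agents for seven days before readout.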

## C=CC(=O)Nc1cc(Nc2nccc(-c3cn(C)c4ccccc34)n2)c(OC)cc1N(C)CCN(C)C + CN1CCN(c2cc(C(=O)Nc3cc4cc(-c5cnn(C)c5)ccc4cn3)ccn2)CC1
Second compound 0.0316 µM
  IC50: > 0.3 µM
Second compound 0.1 µM
  IC50: > 0.3 µM
Second compound 0.316 µM
  IC50: > 0.3 µM
Second compound 1 µM
  IC50: < 0.000949 µM
Second compound 3.16 µM
  IC50: < 0.000949 µM
Second compound 10 µM
  IC50: < 0.000949 µM
Second compound 0.0316 µM, first compound 0.000949 µM
  viability, T/C: 122%
Second compound 0.0316 µM, first compound 0.003 µM
  viability, T/C: 103%
Second compound 0.0316 µM, first compound 0.00949 µM
  viability, T/C: 114%
Second compound 0.0316 µM, first compound 0.03 µM
  viability, T/C: 96%
Second compound 0.0316 µM, first compound 0.0949 µM
  viability, T/C: 93.9%
Second compound 0.0316 µM, first compound 0.3 µM
  viability, T/C: 77.8%
Second compound 0.1 µM, first compound 0.000949 µM
  viability, T/C: 133%
Second compound 0.1 µM, first compound 0.003 µM
  viability, T/C: 129%
Second compound 0.1 µM, first compound 0.00949 µM
  viability, T/C: 107%
Second compound 0.1 µM, first compound 0.03 µM
  viability, T/C: 105%
Second compound 0.1 µM, first compound 0.0949 µM
  viability, T/C: 94.2%
Second compound 0.1 µM, first compound 0.3 µM
  viability, T/C: 93.2%
Second compound 0.316 µM, first compound 0.000949 µM
  viability, T/C: 94%
Second compound 0.316 µM, first compound 0.003 µM
  viability, T/C: 87.2%
Second compound 0.316 µM, first compound 0.00949 µM
  viability, T/C: 93.7%
Second compound 0.316 µM, first compound 0.03 µM
  viability, T/C: 83.9%
Second compound 0.316 µM, first compound 0.0949 µM
  viability, T/C: 87.6%
Second compound 0.316 µM, first compound 0.3 µM
  viability, T/C: 79%
Second compound 1 µM, first compound 0.000949 µM
  viability, T/C: 29.3%
Second compound 1 µM, first compound 0.003 µM
  viability, T/C: 36.8%
Second compound 1 µM, first compound 0.00949 µM
  viability, T/C: 35.3%
Second compound 1 µM, first compound 0.03 µM
  viability, T/C: 29.3%
Second compound 1 µM, first compound 0.0949 µM
  viability, T/C: 30.8%
Second compound 1 µM, first compound 0.3 µM
  viability, T/C: 23.7%
Second compound 3.16 µM, first compound 0.000949 µM
  viability, T/C: 9.51%
Second compound 3.16 µM, first compound 0.003 µM
  viability, T/C: 9.88%
Second compound 3.16 µM, first compound 0.00949 µM
  viability, T/C: 10.5%
Second compound 3.16 µM, first compound 0.03 µM
  viability, T/C: 10.5%
Second compound 3.16 µM, first compound 0.0949 µM
  viability, T/C: 9.87%
Second compound 3.16 µM, first compound 0.3 µM
  viability, T/C: 9.45%
Second compound 10 µM, first compound 0.000949 µM
  viability, T/C: 2.62%
Second compound 10 µM, first compound 0.003 µM
  viability, T/C: 2.53%
Second compound 10 µM, first compound 0.00949 µM
  viability, T/C: 2.32%
Second compound 10 µM, first compound 0.03 µM
  viability, T/C: 1.8%
Second compound 10 µM, first compound 0.0949 µM
  viability, T/C: 1.99%
Second compound 10 µM, first compound 0.3 µM
  viability, T/C: 1.66%

## Nc1ccccc1NC(=O)c1ccc(CNC(=O)OCc2cccnc2)cc1 + CN1CCN(c2cc(C(=O)Nc3cc4cc(-c5cnn(C)c5)ccc4cn3)ccn2)CC1
Second compound 0.0316 µM
  IC50: > 10 µM
Second compound 0.1 µM
  IC50: > 10 µM
Second compound 0.316 µM
  IC50: 2.38 µM
Second compound 1 µM
  IC50: < 0.0316 µM
Second compound 3.16 µM
  IC50: < 0.0316 µM
Second compound 10 µM
  IC50: < 0.0316 µM
Second compound 0.0316 µM, first compound 0.0316 µM
  viability, T/C: 121%
Second compound 0.0316 µM, first compound 0.1 µM
  viability, T/C: 137%
Second compound 0.0316 µM, first compound 0.316 µM
  viability, T/C: 121%
Second compound 0.0316 µM, first compound 1 µM
  viability, T/C: 114%
Second compound 0.0316 µM, first compound 3.16 µM
  viability, T/C: 75.8%
Second compound 0.0316 µM, first compound 10 µM
  viability, T/C: 60.4%
Second compound 0.1 µM, first compound 0.0316 µM
  viability, T/C: 135%
Second compound 0.1 µM, first compound 0.1 µM
  viability, T/C: 118%
Second compound 0.1 µM, first compound 0.316 µM
  viability, T/C: 121%
Second compound 0.1 µM, first compound 1 µM
  viability, T/C: 96.6%
Second compound 0.1 µM, first compound 3.16 µM
  viability, T/C: 74.5%
Second compound 0.1 µM, first compound 10 µM
  viability, T/C: 62.6%
Second compound 0.316 µM, first compound 0.0316 µM
  viability, T/C: 106%
Second compound 0.316 µM, first compound 0.1 µM
  viability, T/C: 95.5%
Second compound 0.316 µM, first compound 0.316 µM
  viability, T/C: 91.1%
Second compound 0.316 µM, first compound 1 µM
  viability, T/C: 62.5%
Second compound 0.316 µM, first compound 3.16 µM
  viability, T/C: 46.9%
Second compound 0.316 µM, first compound 10 µM
  viability, T/C: 19.5%
Second compound 1 µM, first compound 0.0316 µM
  viability, T/C: 28.4%
Second compound 1 µM, first compound 0.1 µM
  viability, T/C: 28.6%
Second compound 1 µM, first compound 0.316 µM
  viability, T/C: 25.6%
Second compound 1 µM, first compound 1 µM
  viability, T/C: 16.1%
Second compound 1 µM, first compound 3.16 µM
  viability, T/C: 4.32%
Second compound 1 µM, first compound 10 µM
  viability, T/C: 5.2%
Second compound 3.16 µM, first compound 0.0316 µM
  viability, T/C: 8.75%
Second compound 3.16 µM, first compound 0.1 µM
  viability, T/C: 8.34%
Second compound 3.16 µM, first compound 0.316 µM
  viability, T/C: 4.74%
Second compound 3.16 µM, first compound 1 µM
  viability, T/C: 4.04%
Second compound 3.16 µM, first compound 3.16 µM
  viability, T/C: 3.26%
Second compound 3.16 µM, first compound 10 µM
  viability, T/C: 8.29%
Second compound 10 µM, first compound 0.0316 µM
  viability, T/C: 2.62%
Second compound 10 µM, first compound 0.1 µM
  viability, T/C: 1.81%
Second compound 10 µM, first compound 0.316 µM
  viability, T/C: 1.37%
Second compound 10 µM, first compound 1 µM
  viability, T/C: 1.01%
Second compound 10 µM, first compound 3.16 µM
  viability, T/C: 2.34%
Second compound 10 µM, first compound 10 µM
  viability, T/C: 4.45%
